Experimental data taken from PMC10525257, “Hop Flower Supercritical Carbon Dioxide Extracts Coupled with Carriers with Solubilizing Properties—Antioxidant Activity and Neuroprotective Potential” (Antioxidants, 2023).
Values after ≈ are worked out from the molar mass of the structure shown.

Biological target: T1, tyrosinase from mushroom
T1 construct: gene PPO1
Test: dopachrome absorbance, […] nm, 96-well plate
Format: biochemical
Conditions: L-DOPA substrate (2.0 mM stock), phosphate buffer pH 6.8, room temperature

- IC50: 6455 ± 249 µg/mL (≈ 34.3 mM)
Structure (SMILES): O=C(O)CCCCCCCC(=O)O [azelaic acid]
